# Test results from publication PMC12376232 (Journal of the Colleges of Medicine of South Africa, 2023).
# What was measured:
# rodents = settings: in vivo
# benign thyroid diseases = test: I-131 therapy of benign thyroid diseases, retrospective analysis; format: in vivo; settings: 127 patients
# Description: A retrospective analysis was carried out for patients with benign thyroid conditions who underwent single or double I-131 therapy for benign thyroid disease at our department between January 2009 and December 2021. The thyroid function status of the patients was also documented prior to discharge.
smiles,measurement,setting,value
"CCCC(C)C1(CC)C(=O)NC(=O)NC1=O (stereo not drawn) [Pentobarbital, pentobarbital]",effect on glucose metabolism,rodents,does not alter the blood glucose metabolism
same,safety margin for rodent anaesthesia,rodents,lower safety margin
"CC(C)c1cccc(C(C)C)c1O [Propofol, propofol]",effect on glucose metabolism,rodents,decreased cerebral glucose metabolism
[131IH] [RAI],patients who required retreatment as they remained hyperthyroid,"benign thyroid diseases; after single RAI therapy, n = 33",26%
same,patients who responded to the single RAI therapy (euthyroid or hypothyroid),"benign thyroid diseases; empirical dose 10 mCi to 40 mCi, n = 94",Seventy-four per cent
same,patients euthyroid on discharge,"benign thyroid diseases; single or double I-131 therapy, n = 40",31%
same,patients hypothyroid on discharge,"benign thyroid diseases; single or double I-131 therapy, n = 83",66%
FC(F)OC(Cl)C(F)(F)F (stereo not drawn) [isoflurane],effect on glucose metabolism,rodents,induced hypoglycaemia
FCOC(C(F)(F)F)C(F)(F)F [sevoflurane],effect on glucose metabolism,rodents,induced hypoglycaemia
